Read-outs that look alike come from different tables or passages of the source.
Assays:
ACKR3 = biological target: T1, ACKR3 (Homo sapiens, UniProt P25106); assay: ACKR3 signaling and trafficking sensor assays summarised together (β-arrestin1, GRK2, Rab5a, clathrin A); format: cell-based
T1 construct: expressed in transfected cells; host or cells: HEK293T
Experimental: For 1·10^6 HEK293T cells, a transfection mix consisting of 2 μg plasmid DNA, 12 μg linear PEI in a total volume of 200 μL 150 mM NaCl was made and thoroughly vortexed. The transfection mix was incubated for 15 minutes and consequently added to a cell suspension with a final concentration of 3·10^5 cells/mL. For functional studies this cell suspension was immediately transferred to a poly-L-lysine-coated white 96-well plate, with 3·10^4 cells per well. […] For BRET-based membrane localization experiments, the 2 μg plasmid DNA consisted of ACKR3-NL (0.05 μg), mVenus-CAAX (0.25 μg), and pcDEF3 vector DNA without insert (1.7 μg).
Next, it was explored whether VUF16840 could also affect a number of additional ACKR3 signaling or trafficking events. Both β-arrestin1 and GRK2 are known to be recruited to hACKR3 upon activation,[10]^,[23]^,[45],[46] and phosphorylation of the C-terminus is found to be crucial for ACKR3 internalization and β-arrestin1/2 recruitment,[10]^,[47]^,[48] mediated at least in part by GRK2.[10]^,[47] Additionally, clathrin A is a structural protein involved in the formation of clathrin-coated vesicles mediating receptor packaging and internalization, whereas Rab5a is a protein highly expressed in early endosomes.[32]^,[49] […] Agonist-induced internalization of ACKR3 was further monitored by measuring the interaction between clathrin A and β-arrestin 2 using a NanoBiT-based protein–protein interaction assay (Fig. 5D).
Fig. 5 Inhibition of both constitutive as well as agonist-induced ACKR3 activity by VUF16840. […] The resulting proximity between ACKR3 and β-arrestin1 (A, E), GRK2 (B, F), or Rab5a (C, G) was determined by bioluminescence resonance energy transfer. Furthermore, an interaction between clathrin A and β-arrestin2 was measured by NLuc complementation, as was determined by quantifying the relative light units (D, H). […]

NLuc-hACKR3 = biological target: T2, NLuc-hACKR3 (Homo sapiens, UniProt P25106); assay: NanoBRET ligand binding assay (CXCL12-AF647 displacement); details: 0.3 nM CXCL12-AF647, HEK293T membranes; read-out: IC50, displacement of CXCL12-A647 binding to NLuc-hACKR3
T2 construct: expressed in transfected cells; host or cells: HEK293T (membranes, transient expression)
Experimental: Membranes of HEK293T cells that transiently expressed the NLuc-hACKR3 or HA-hACKR3 were produced as previously described.[23] Briefly, 2 million HEK293T cells were seeded per […] and were transfected the following day using a DNA/PEI-mix containing 0.25 μg plasmid DNA encoding for the ACKR3, 4.75 μg pcDEF3 plasmid DNA and 30 μg linear PEI. Two days after transfection, cells were collected in PBS (137 mM NaCl, 2.57 mM KCl, 1.5 mM KH2PO4, 8 mM Na2HPO4) and pelleted by centrifugation. Cell pellets were resuspended in ice-cold membrane buffer (15 mM Tris, 0.3 mM EDTA, 2 mM MgCl2, pH 7.4 at 4 °C) and dounce-homogenized on ice by plunging the pestle 10 times with 1500 rpm. […]
All dilutions were prepared in HBSS supplemented with 0.2% BSA. […] Total light intensity was measured at 460 nm wavelength with 80 nm bandwidth and separately for wavelengths ≥610 nm using the PHERAstar-FSX (BMG Labtech) with a dual emission filter. […]
The sigmoidal concentration-dependent displacement of binding of the probes [^3H]VUF15485 and CXCL12-A647 by unlabeled ligands were analyzed using GraphPad Prism 8, by fitting a one-site binding model to the data, to determine the pIC50. Mean pIC50 values were determined by averaging fitted values from individual experiments. […] Mean pEC50 values and pIC50 values were determined by averaging fitted values from individual experiments. […]

T1 sequence (P25106 whole entry): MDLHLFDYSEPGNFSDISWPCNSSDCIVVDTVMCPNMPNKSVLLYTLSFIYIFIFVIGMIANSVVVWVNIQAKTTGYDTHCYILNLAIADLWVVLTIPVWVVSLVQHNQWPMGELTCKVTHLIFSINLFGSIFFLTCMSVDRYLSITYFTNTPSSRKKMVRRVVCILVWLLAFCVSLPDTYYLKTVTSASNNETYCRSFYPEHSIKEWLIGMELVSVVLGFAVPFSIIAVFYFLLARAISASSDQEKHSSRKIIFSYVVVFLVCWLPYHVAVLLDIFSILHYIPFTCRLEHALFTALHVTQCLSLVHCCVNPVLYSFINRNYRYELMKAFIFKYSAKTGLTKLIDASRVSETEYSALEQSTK
T2 sequence (P25106 whole entry): as above

EC50 (ACKR3; agonist, range over assays, read-out: pEC50 values, recruitment of β-arrestin1 and GRK2 and translocation toward early endosomes (converted)) [nM] | IC50 (NLuc-hACKR3) [nM] | IC50 (ACKR3; 100 nM VUF15485, range over assays, read-out: pIC50 values, inhibition of VUF15485-responses (converted)) [nM] | EC50 (ACKR3; inverse agonist, range over all assay setups, read-out: pEC50 values, inhibition of constitutive ACKR3-mediated responses (converted)) [nM] | SMILES
7.94 to 39.8 | 28 |  |  | COc1cc(C(=O)N(CCC2CCCN2C)CC(C)=Cc2ccccc2F)cc(OC)c1OC (centres unmarked) [VUF15485, reference compound]
 | 7 | 2 to 50.1 | 1.58 to 10 | COc1ccccc1CCNC(=O)C1CN(C2CCCCC2)CCC1NC(=O)c1cc(-c2ccc(F)cc2F)on1 (centres unmarked) [VUF16840]

— paper PMC12799421, “Inhibition of constitutive activity of the atypical chemokine receptor 3 by the small-molecule inverse agonist VUF16840” (Molecular Pharmacology, 2025)
